Measured values reported in patent US5919756A, “Amides” (Eli Lilly and Company, priority 1997, dated 1999).
Values after ≈ are worked out from the molar mass of the structure shown.

Key:
Assay type in all cases: cell-based
[1] = tested on: Enterococcus, Resistant (4-6 isolates); experiment: Enterococcus screen, broth micro-dilution MIC, resistant isolates; set-up: unit not given here; conditions: mean of 4-6 isolates
Protocol: (§1) The antibacterial efficacy of the present compounds is illustrated in TABLE 2. The minimal inhibitory concentrations (MICs) were determined using a standard broth micro-dilution assay.

[2] = tested on: Enterococcus, Sensitive (4-6 isolates); experiment: Enterococcus screen, broth micro-dilution MIC, sensitive isolates; set-up: unit not given here; conditions: mean of 4-6 isolates
Protocol: as §1

[3] = tested on: Staphylococcus aureus 446; experiment: Broth micro-dilution MIC, SA 446; conditions: unit assumed
Protocol: as §1

[4] = tested on: Staphylococcus aureus 489; experiment: Broth micro-dilution MIC, SA 489; conditions: unit assumed
Protocol: as §1

[5] = tested on: Staphylococcus aureus 447; experiment: Broth micro-dilution MIC, SA 447; conditions: unit assumed
Protocol: as §1

[6] = tested on: Staphylococcus haemolyticus 105; experiment: Broth micro-dilution MIC, SH 105; conditions: unit assumed
Protocol: as §1

[7] = tested on: Staphylococcus haemolyticus 415; experiment: Broth micro-dilution MIC, SH 415; conditions: unit assumed
Protocol: as §1

[8] = tested on: Staphylococcus epidermis 270; experiment: Broth micro-dilution MIC, SE 270; conditions: unit assumed
Protocol: as §1

[9] = tested on: Streptococcus pneumoniae P1; experiment: Broth micro-dilution MIC, S PN P1; conditions: unit assumed
Protocol: as §1

[10] = tested on: Streptococcus pyogenes 203; experiment: Broth micro-dilution MIC, S PY 203; conditions: unit assumed
Protocol: as §1

Row | Compound | Minimum Inhibitory Concentrations (MICs), Mean Values of 4-6 Isolates, Resistant [1] | Minimum Inhibitory Concentrations (MICs), Mean Values of 4-6 Isolates, Sensitive [2] | MIC, SA 446 [3] | MIC, SA 489 [4] | MIC, SA 447 [5] | MIC, SH105 [6] | MIC, SH415 [7] | MIC, SE270 [8] | MIC, S PN P1 [9] | MIC, S PY 203 [10]
1 | CCCCc1ccc(CNC2(C)CC(OC3C(Oc4c5cc6cc4Oc4ccc(cc4Cl)C(OC4CC(C)(N)C(O)C(C)O4)C4NC(=O)C(NC(=O)C6NC(=O)C(CC(N)=O)NC(=O)C(NC(=O)C(CC(C)C)NC)C(O)c6ccc(c(Cl)c6)O5)c5ccc(O)c(c5)-c5c(O)cc(O)cc5C(C(=O)NCCc5ccccc5)NC4=O)OC(CO)C(O)C3O)OC(C)C2O)cc1.O=C(O)C(F)(F)F (stereo not drawn) [Example 15, N^4-(4-n-butylbenzyl)A82846B, phenethylamide, trifluoroacetate salt] | 1.7 | 0.22 | 2 µg/mL | 2 µg/mL | 2 µg/mL | 1 µg/mL | 2 µg/mL | 2 µg/mL | ≤ 0.06 µg/mL | ≤ 0.06 µg/mL
2 | N^4 -(4-(4-CHLOROPHENYL)BENZYL)A82846B, 5-(TERT-BUTOXYCARBONYLAMINO)PENTYLAMIDE, TRIS(TRIFLUOROACETATE) SALT [Example 25] | 2.8 | 5.0 |  |  |  |  |  |  |  | 
3 | N^4 -(4-phenylbenzyl)A82846B, (4-cyclohexylphenyl) amide, trifluoroacetate salt [Example 8] | 6.7 | 0.33 | 2 µg/mL | 4 µg/mL | 2 µg/mL | 4 µg/mL | 4 µg/mL | 2 µg/mL | ≤ 0.06 µg/mL | ≤ 0.06 µg/mL
4 | CNC(CC(C)C)C(=O)NC1C(=O)NC(CC(N)=O)C(=O)NC2C(=O)NC3C(=O)NC(C(=O)NC(C(=O)NCCCN(C)C)c4cc(O)cc(O)c4-c4cc3ccc4O)C(OC3CC(C)(N)C(O)C(C)O3)c3ccc(c(Cl)c3)Oc3cc2cc(c3OC2OC(CO)C(O)C(O)C2OC2CC(C)(NCc3ccc(-c4ccccc4)cc3)C(O)C(C)O2)Oc2ccc(cc2Cl)C1O (stereo not drawn) [Example 21, N^4-(4-phenylbenzyl)A82846B, (3-(dimethylamino)-n-propyl) amide] | 1.2 | 0.054 | 4 µg/mL (≈ 2.17 µM) | 2 µg/mL (≈ 1.09 µM) | 2 µg/mL (≈ 1.09 µM) | 0.5 µg/mL (≈ 0.271 µM) | 2 µg/mL (≈ 1.09 µM) | 0.5 µg/mL (≈ 0.271 µM) | ≤ 0.06 µg/mL | ≤ 0.06 µg/mL
5 | CNC(CC(C)C)C(=O)NC1C(=O)NC(CC(N)=O)C(=O)NC2C(=O)NC3C(=O)NC(C(=O)NC(C(=O)NCCc4ccccc4)c4cc(O)cc(O)c4-c4cc3ccc4O)C(OC3CC(C)(N)C(O)C(C)O3)c3ccc(c(Cl)c3)Oc3cc2cc(c3OC2OC(CO)C(O)C(O)C2OC2CC(C)(NCc3ccc(-c4ccccc4)cc3)C(O)C(C)O2)Oc2ccc(cc2Cl)C1O (stereo not drawn) [Example 17, N^4-(4-phenylbenzyl)A82846B, phenethylamide] | 1.4 | 0.25 |  |  |  |  |  |  |  | 
6 | N^4 -(4-phenoxybenzyl)A82846B, phenethylamide, trifluoroacetate salt [Example 14] | 2 | 0.01 | 2 µg/mL | 1 µg/mL | 2 µg/mL | 0.5 µg/mL | 2 µg/mL | 1 µg/mL | ≤ 0.06 µg/mL | ≤ 0.06 µg/mL
7 | N^4 -(4-phenylbenzyl)A82846B, tert-butylamide, trifluoroacetate salt [Example 4] | 2 | 0.082 | 2 µg/mL |  | 0.5 µg/mL | 1 µg/mL | 2 µg/mL | 0.125 µg/mL | ≤ 0.06 µg/mL | ≤ 0.06 µg/mL
8 | CNC(CC(C)C)C(=O)NC1C(=O)NC(CC(N)=O)C(=O)NC2C(=O)NC3C(=O)NC(C(=O)NC(C(=O)NCc4ccccc4)c4cc(O)cc(O)c4-c4cc3ccc4O)C(OC3CC(C)(N)C(O)C(C)O3)c3ccc(c(Cl)c3)Oc3cc2cc(c3OC2OC(CO)C(O)C(O)C2OC2CC(C)(NCc3ccc(-c4ccccc4)cc3)C(O)C(C)O2)Oc2ccc(cc2Cl)C1O.Cl (stereo not drawn) [Example 11, N^4-(4-phenylbenzyl)A82846B, benzylamide, HCl salt] | 1 | 0.11 | 4 µg/mL | 1 µg/mL | 1 µg/mL | 1 µg/mL | 1 µg/mL | 1 µg/mL | ≤ 0.06 µg/mL | ≤ 0.06 µg/mL
9 | CNC(CC(C)C)C(=O)NC1C(=O)NC(CC(N)=O)C(=O)NC2C(=O)NC3C(=O)NC(C(=O)NC(C(=O)NCCCc4ccccc4)c4cc(O)cc(O)c4-c4cc3ccc4O)C(OC3CC(C)(N)C(O)C(C)O3)c3ccc(c(Cl)c3)Oc3cc2cc(c3OC2OC(CO)C(O)C(O)C2OC2CC(C)(N)C(O)C(C)O2)Oc2ccc(cc2Cl)C1O (stereo not drawn) [Example 20, A82846B, (3-phenyl-n-propyl) amide] | 11 | 0.22 | 0.125 µg/mL (≈ 0.0731 µM) | ≤ 0.06 µg/mL | ≤ 0.06 µg/mL | 0.125 µg/mL (≈ 0.0731 µM) | 0.25 µg/mL (≈ 0.146 µM) | ≤ 0.06 µg/mL | ≤ 0.06 µg/mL | ≤ 0.06 µg/mL
10 | CNC(CC(C)C)C(=O)NC1C(=O)NC(CC(N)=O)C(=O)NC2C(=O)NC3C(=O)NC(C(=O)NC(C(=O)NCCCN(C)C)c4cc(O)cc(O)c4-c4cc3ccc4O)C(OC3CC(C)(N)C(O)C(C)O3)c3ccc(c(Cl)c3)Oc3cc2cc(c3OC2OC(CO)C(O)C(O)C2OC2CC(C)(N)C(O)C(C)O2)Oc2ccc(cc2Cl)C1O.O=C(O)C(F)(F)F (stereo not drawn) [Example 23, A82846B, (3-(dimethylamino)-n-propyl)amide, trifluoroacetate salt] | > 128 | 0.44 | 0.125 µg/mL | ≤ 0.06 µg/mL | 0.125 µg/mL | ≤ 0.06 µg/mL | ≤ 0.06 µg/mL | ≤ 0.06 µg/mL | ≤ 0.06 µg/mL | ≤ 0.06 µg/mL
11 | CNC(CC(C)C)C(=O)NC1C(=O)NC(CC(N)=O)C(=O)NC2C(=O)NC3C(=O)NC(C(=O)NC(C(=O)NCCC(c4ccccc4)c4ccccc4)c4cc(O)cc(O)c4-c4cc3ccc4O)C(OC3CC(C)(N)C(O)C(C)O3)c3ccc(c(Cl)c3)Oc3cc2cc(c3OC2OC(CO)C(O)C(O)C2OC2CC(C)(NCc3ccc(-c4ccccc4)cc3)C(O)C(C)O2)Oc2ccc(cc2Cl)C1O (stereo not drawn) [Example 22, N^4-(4-phenylbenzyl)A82846B, (3,3-diphenyl-n-propyl) amide] | 1.68 | 0.87 | 32 µg/mL (≈ 16.4 µM) | 32 µg/mL (≈ 16.4 µM) | 32 µg/mL (≈ 16.4 µM) | 8 µg/mL (≈ 4.1 µM) | 8 µg/mL (≈ 4.1 µM) | 16 µg/mL (≈ 8.2 µM) | 0.125 µg/mL (≈ 0.064 µM) | 0.125 µg/mL (≈ 0.064 µM)
12 | N^4 -(4-(4-CHLOROPHENYL)BENZYL)A82846B, 5-AMINOPENTYLAMIDE, TETRA(TRIFLUOROACETATE) SALT [Example 26] | 1.7 | 0.44 |  | 2 µg/mL | 1 µg/mL | 0.5 µg/mL | 2 µg/mL | 1 µg/mL | 0.25 µg/mL | 0.25 µg/mL
13 | N^4 -(4-phenoxybenzyl)A82846B, tert-butylamide, trifluoroacetate salt [Example 5] | 4 | 0.22 | 8 µg/mL | 2 µg/mL | 2 µg/mL | 4 µg/mL | 2 µg/mL | 4 µg/mL |  | ≤ 0.06 µg/mL
14 | N^4 -(4-phenoxybenzyl)A82846B, n-octylamide, trifluoroacetate salt [Example 6] | 1.7 | 0.44 | 4 µg/mL | 2 µg/mL | 1 µg/mL | 1 µg/mL | 4 µg/mL | 1 µg/mL |  | ≤ 0.06 µg/mL
15 | CNC(CC(C)C)C(=O)NC1C(=O)NC(CC(N)=O)C(=O)NC2C(=O)NC3C(=O)NC(C(=O)NC(C(=O)NCCc4ccccc4)c4cc(O)cc(O)c4-c4cc3ccc4O)C(OC3CC(C)(N)C(O)C(C)O3)c3ccc(c(Cl)c3)Oc3cc2cc(c3OC2OC(CO)C(O)C(O)C2OC2CC(C)(N)C(O)C(C)O2)Oc2ccc(cc2Cl)C1O.O=C(O)C(F)(F)F (stereo not drawn) [Example 16, A82846B, phenethylamide, trifluoroacetate salt] | 16 | 0.25 | 0.125 µg/mL | ≤ 0.06 µg/mL | ≤ 0.06 µg/mL | ≤ 0.06 µg/mL | 0.125 µg/mL | ≤ 0.06 µg/mL | ≤ 0.06 µg/mL | 
